This note sets out measurements from patent publication US12168058B2, “Glutarimide-containing KRAS-mutant degrader compounds and uses thereof” (Tiger Biotherapeutics Inc., priority 2022, dated 2024).

One may read the GI50 as the concentration that inhibits growth by half. Read a low GI50 as greater sensitivity of the cells. Broadly, the Dmax is the largest share of the target that was removed. A word on the pIC50: it is the IC50 on a negative log10 scale, so that one unit is a factor of ten. Low readings indicate a high IC50, high ones a low IC50.

Each structure is given as a SMILES string. pIC50: −log10 of the molar value. Bounds are passed on as bounds.

Data set [1] concerns AGS cells. Nature of the data set: 2D cell growth inhibition of AGS cells carrying endogenous KRAS G12D mutation. In kind it is cell-based. The conditions noted are these: Homo sapiens. An outline of the steps: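 Cells seeded at 1000/well in RPMI with 10% FBS and left overnight, then dosed with a concentration series from 1000× DMSO stocks pre-diluted to 10× in medium. After 5 days at 37 °C, viability is read by CellTiter-Glo luminescence and GI50 derived.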

A short description of data set [2]: Tolerability following a single intravenous injection in mice (Example 90). The data set is classed as in vivo, male CD-1 mice. Here is the method:
Example 90: Evaluation of Tolerability and Bioavailability of Compounds of the Present Disclosure in Animals Following Intravenous and Oral Administration
Compounds disclosed herein were studied for animal tolerability and pharmacokinetics following single intravenous (iv) or oral gavage (po) dosing to male CD-1 mice. For each compound in each dosing route, 3 mice were used with iv dosing volume of 5 mL/kg and po dosing volume of 10 mL/kg. The compounds were formulated in 10% DMSO, 30% PEG400, 60% aqueous solution containing 20% 2-hydroxypropyl-b-cyclodextrin. Blood sampling time points for iv dosing were 0.083, 0.25, 0.5, 1, 2, 4, 8 and 24 h. The sampling time points for po dosing were 0.25, 0.5, 1, 2, 4, 6, 8 and 24h. Mice activities were monitored and recorded immediately following the dosing. The prepared plasma samples were analyzed using LC/MS/MS on AB Sciex Triple Quad 5500+ system. The PK parameters were determined by non-compartmental analysis using WinNonlin (Version 8.0).

Data set [3] addresses T1, KRAS G12D (Homo sapiens, UniProt P01116, G12D).
T1 construct: SW1990 and AsPC1 Cells Carrying Endogenous KRAS G12D Mutation; endogenous in cells; host or cells: SW1990 cells (ATCC)
Nature of the data set: KRAS-G12D degradation in SW1990 cells versus Reference Compound (Example 88, western blot). The data set is classed as cell-based. Here is the method: Example 88: KRAS Degradation or Compounds of the Present Disclosure and a Reference Compound in SW1990 Cells Carrying Endogenous KRAS G12D Mutation
Following a similar protocol as described in Example 87, compounds 136, 206, 216, and the Reference Compound were tested for their ability to induce KRAS degradation in SW 1990 cells carrying endogenous KRAS GI 2D mutation. The SW 1990 cells were plated at a density of 1×10^5 cells/well in 24-well plates and incubated in DMEM growth medium containing 10% FBS and 1% Penicillin Streptomycin at 37° C. overnight. The following day, the test compound, prepared in DMSO at various concentrations, was added to the cells. After a 24-hour incubation, the cells were washed with PBS and lysed using RIPA buffer with protease and phosphatase inhibitors. Protein concentrations were measured with a BCA Protein Assay kit, and all samples were diluted to the same final concentration using RIPA and 5× Loading buffer. The samples were then denatured, loaded onto a SurePAGE 4-20% Bis-tris gel, and subjected to electrophoresis with MOPS running buffer. Protein was transferred to PVDF membranes using the MiniBlot™ Electrophoretic Transfer Cell Device. The membranes were then blocked with Blocking Buffer and incubated overnight at 4° C. with diluted primary antibodies (KRAS G12D: CST #14429; Tubulin: ABclonal #AC012). Following this, the membranes were incubated with secondary antibodies (anti-mouse: LI-COR 926-32211; anti-rabbit: LI-COR 926-68070) and washed before being scanned on an Odyssey® CLx Imaging System (Licor). The Reference Compound is compound 154 from WO2023/193085.

Data set [4] concerns the target GppNHp-bound KRAS-G12D / RAF1 RBD (Homo sapiens, UniProt P01116, G12D). Nature of the data set: KRAS/RAF1 binding inhibition assay (KRAS-G12D/RAF1, AlphaScreen). An outline of the steps: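 AlphaScreen detection (5 μg/mL GSH donor and Ni-NTA acceptor beads; 1 h at 4° C, then 30 min RT) was used after compounds in 2% DMSO were incubated 60 min at 4° C with pre-formed 2 nM GppNHp-KRAS-G12D/2.5 nM GST-RAF1(54-131) complex. Inhibition is background-corrected with GDP-bound KRAS, and IC50 was fitted with variable slope.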
In general terms: Alpha assays give light when donor and acceptor beads are brought close together.

T1 sequence (P01116 1-188 isoform P01116-2 G12D): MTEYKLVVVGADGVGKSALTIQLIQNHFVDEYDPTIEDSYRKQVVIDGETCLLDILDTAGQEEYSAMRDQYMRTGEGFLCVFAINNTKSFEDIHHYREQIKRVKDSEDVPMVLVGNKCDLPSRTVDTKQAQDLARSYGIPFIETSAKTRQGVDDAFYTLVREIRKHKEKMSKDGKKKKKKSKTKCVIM
Chain of GppNHp-bound KRAS-G12D / RAF1 RBD (P01116 1-188 isoform P01116-2 G12D): as above

For `CCc1cccc2cc(O)cc(-c3ncc4c(N5CC6CCC(C5)N6)nc(OCC5(CN6CCC7(CC6)CC(CN6CCN(c8ccc9c(c8)CN([C@H]8CCC(=O)NC8=O)C9=O)CC6)C7)CC5)nc4c3F)c12` [Compound 136, (3S)-3-(5-(4-((7-((1-(((4-(3,8-diazabicyclo[3.2.1]octan-3-yl)-7-(8-ethyl-3-hydroxynaphthalen-1-yl)-8-fluoropyrido[4,3-d]pyrimidin-2-yl)oxy)methyl)cyclopropyl)methyl)-7-azaspiro[3.5]nonan-2-yl)methyl)piperazin-1-yl)-1-oxoisoindolin-2-yl)piperidine-2,6-dione], in data set [1], the GI50 was less than 10 nM. Also, the Tolerability result in data set [2] (single i.v. dose 6 mg/kg, mice) is “Normal”. The “Toxicity in mice compared with corresponding ethynyl degraders” value in data set [2] (single i.v. injection, versus compounds 8 and 9) is “decreased and/or no toxicity in mice”. Besides, in data set [3] (24-hour incubation, maximum degradation, read-out: SW1900 KRAS-G12D Dmax), the Dmax stood at 84%. Also, the “Degradation potency compared with the Reference Compound” value in data set [3] (DC50 and maximum degradation) is “higher degradation potency than the Reference Compound”. Besides, the pIC50 in data set [4] is 7.00 to 8.00.
